In US20210156865A1, “METHODS FOR ASSESSING EFFICACY OF MALT1 INHIBITORS USING AN NF-KB TRANSLOCATION ASSAY” (Janssen Pharmaceutica NV, priority 2019, published 2021):
pIC50: −log10 of the molar value.

Tests used:
CD4+ and CD8+ T cells = assay: CD69 expression on T cells from peripheral whole blood, imaging flow cytometry; format: cell-based, human; settings: 200 μM overnight, anti-CD3 and anti-CD28 6 hours
Method: (§1) The solution was mixed by pipetting with a 1 mL pipette. The plates were incubated in a humidified incubator at 37° C. with 5% CO2 for an additional 6 hours.
The next day, blood was treated with anti-CD3 and anti-CD28 stimulatory antibodies for 6 hours as described in Example 1 or left untreated. After treatment with the stimulatory antibodies, the red blood cells were lysed using multi-species lysis buffer, and the white blood cells were stained with anti-CD4 and anti-CD8 antibodies to label T cells and an anti-CD69 antibody to measure early T cell activation. Frequency of CD69-positive T cells (CD4+ and CD8+) was measured by IFC.

[1] = test system: NF-κB (p105/p50) nuclear translocation in CD4 and CD8 positive T cells; assay: NF-kB nuclear translocation in T cells from NHL peripheral whole blood; format: cell-based, human
Method: as §1
The staining solution was prepared by diluting Hoechst 33342 (Thermo Scientific, cat. #62249) to 10 nM and the p50 antibody (Clone 2J10D7; Novus, cat. #NB100-56583C) at 50 μg/mL in FACS buffer. The cells were incubated in the staining solution for 30 minutes at room temperature in the dark. The cells were washed by centrifugation at 1350 rpm for 5 minutes at room temperature, the supernatants were discarded, and the pellets were reconstituted in FACS buffer. The wash step was repeated twice, and the cells were resuspended in PBS at a final concentration of 5-20×10^6 cell/mL in 25 μL of PBS.
The samples were imaged on an AMNIS® […]® X Mark II imaging flow cytometer (MilliporeSigma, Burlington, Mass.) immediately, using 60× magnification, and the data was analyzed in IDEAS software using an internalization module, e.g., to evaluate frequency of CD4+ and CD8+ T cells or CLL cells with nuclear enrichment of p50.
The next day, the mixture samples were treated with anti-CD3 and anti-CD28 stimulatory antibodies following a procedure as that described in Example 1. […] Samples were analyzed on ImageStreamX to evaluate NF-κB nuclear localization in the CD4 and the CD8 positive T cells.

[2] = test system: NF-κB (p105/p50) nuclear translocation in CD19-positive B (CLL) cells; assay: NF-κB nuclear translocation in B cells from CLL PBMCs, 30 min anti-IgM; format: cell-based, human; settings: 6 hours compound, anti-IgM 30 minutes
Method: Alternatively, B cells can also be activated by beads coated with anti-IgM antibody. After the stimulation, PBMCs were fixed using CytoFix buffer and permeabilized using 0.1% Triton X-100 solution. Cells were then stained with anti-CD19 to label B (CLL) cells, Hoechst 33342 to label nuclei, and anti-p105/p50 to label NF-κB subunit. Samples were analyzed on ImageStreamX to evaluate NF-κB nuclear localization in the CD19-positive cells. […] Statistical significance was determined using Student's t-test in Microsoft Excel.

[3] = test system: NF-kB nuclear localization in B (CLL) cells; assay: NF-κB nuclear translocation in CLL B cells, overnight incubation, 6 h anti-IgM; format: cell-based, human; settings: CLL PBMC; overnight compound; anti-IgM 6 hours
Method: Cells were then treated with anti-IgM or left untreated for 6 hours. After stimulation, PBMC were fixed using CytoFix buffer and permeabilized using 0.1% Triton X-100 solution. Cells were then stained with anti-CD19 to label B (CLL) cells, anti-CD4 and anti-CD8 to label T cells, Hoechst 33342 to label nuclei, and anti-p105/p50 to label NF-kB subunit. Samples were analyzed on ImageStreamX to evaluate NF-kB nuclear localization in B cells or T cells. […] Statistical significance was determined using Student's t-test in Microsoft Excel.

[4] = test system: peripheral blood of CLL patients; assay: Gene expression in whole blood of CLL patients (NanoString Pan-Cancer Immune Profiling); format: cell-based, human; settings: 200 μM 24 hours, anti-CD3 and anti-CD28 four hours
Method: (§2) Peripheral blood was collected from three NHL and two CLL patients. […] Prior to stimulation and following stimulation, the treated blood was transferred into a PAXgene tube (Qiagen; Hilden, Germany) and RNA was extracted using the PAXgene RNA kit. Gene expression was measured using 100 ng of RNA extracted from the whole blood in the Pan-Cancer Immune Profiling kit (NanoString; Seattle, Wash.) according to the manufacturer's instructions.

[5] = test system: peripheral blood of NHL patients; assay: Gene expression in whole blood of NHL patients (NanoString Pan-Cancer Immune Profiling); format: cell-based, human; settings: 200 μM 24 hours, anti-CD3 and anti-CD28 four hours
Method: as §2

[6] = test system: purified T-cells and PBMCs from NHL patients; assay: IL2 expression in purified T-cells and PBMCs from NHL patients; format: cell-based, human; settings: T-cells and PBMC of NHL blood; 24 hours; CD3 and CD28 six hours
Method: The effect of a MALT inhibitor was analyzed utilizing gene expression signatures from purified T-cells and PBMCs from Non-Hodgkin's lymphoma patients. Peripheral blood was collected from five NHL patients, and the peripheral blood was allowed to stand overnight. Then, the peripheral blood was treated for 24 hours with a MALT inhibitor or DMSO control. The blood was then stimulated with monoclonal antibodies against CD3 and CD28 for six hours. Prior to stimulation and following stimulation, PBMC were purified from the treated blood using a ficoll density gradient and T-cells were purified using CD3 Beads (Miltenyi) using the manufacturers protocol. Purified cells were lysed in RLTplus (Qiagen) and RNA was extracted from the purified cells using an AllPrepkit (Qiagen). Gene expression was measured using 100 ng of RNA in the Pan-Cancer Immune Profiling kit (NanoString) according to the manufacturer's instructions.

[7] = test system: purified T-cells and PBMCs from NHL patients; assay: Gene expression in T-cells and PBMCs purified from NHL blood without stimulation; format: cell-based, human; settings: no stimulation, 24 hours
Method: Peripheral blood was collected from five NHL patients, and the peripheral blood was allowed to stand overnight. Then, the peripheral blood was treated for 24 hours with a MALT inhibitor or DMSO control. PBMCs were purified from the unstimulated blood using a ficoll density gradient and T-cells were purified using CD3 Beads (Miltenyi) using the manufacturers protocol. Purified cells were lysed in RLTplus (Qiagen) and RNA was extracted from the purified cells using an AllPrep kit (Qiagen). Gene expression was measured using 100 ng of RNA in the Pan-Cancer Immune Profiling kit (NanoString) according to the manufacturer's instructions. Gene expression signatures were compared between the MALT inhibitor treated and DMSO treated samples.

[8] = test system: whole blood of NHL patients; assay: Gene expression signatures in NHL whole blood treated with lymphocyte-stimulating agents; format: cell-based, human; settings: PMA-stimulated samples, 100 μM
Method: To obtain a robust gene signature of MALT1 inhibitor activity, whole blood of nine NHL patients which was stimulated with CD3/CD28, PMA/ionomycin, or PBS as a control was tested. Briefly, NHL donor blood was collected in 10 mL sodium heparin tubes and transported in refrigerated state (cold packs). […] Then, aliquots were stimulated with CD3 and CD28 antibodies (1 ug/ml each), PMA (20 ng/ml) and Ionomycin (1 μg/mL), or unstimulated (PBS) for four hours. Following stimulation, the treated blood was transferred into a PAXgene tube (Qiagen; Hilden, Germany) and RNA was extracted using the PAXgene RNA kit.
Gene expression was measured using 100 ng of RNA extracted from the whole blood in the Pan-Cancer Immune Profiling kit (NanoString; Seattle, Wash.) according to the manufacturer's instructions. Gene expression was normalized across samples using NanoString nSolver software. […] Briefly, log 2-scaled, normalized NanoString counts were fit to a linear model (which incorporated the patient of origin) and moderated t-statistics, along with the associated Benjamini-Hochberg (BH) corrected p-values, were computed by empirical Bayes moderation of the standard errors towards a common value.

[9] = test system: CD79b-mutant DLBCL and ibrutinib-resistant DLBCL cell lines; assay: Growth of DLBCL cell lines in vitro; format: cell-based; settings: ibrutinib-resistant with BTK C481S or CARD11 mutations
[10] = test system: CD79b and CARD11-mutant ABC-DLBCL xenograft models; assay: ABC-DLBCL xenograft models in vivo
[11] = test system: proteases, caspases, protein kinases, and G-protein-coupled receptors; assay: Binding inhibition panel at single dose; parameters: dose or concentration left out as unconfirmed
Oral bioavailability = settings: in vivo
[12] = test system: NF-κB proteins (p50 and RelB) in CLL cells; settings: CLL cells treated in vitro; cited from earlier work
[13] = test system: NF-κB target genes (CCND2, BCL2A, CCL3, CCL4, RGS1, and TNF) in CLL cells; settings: CLL cells treated in vitro; cited from earlier work

For `O=C(Nc1ccnc(C(F)(F)F)c1)c1cnn(-c2cccc3c(=O)[nH]ccc23)c1C(F)(F)F` [Compound A, 1-(1-oxo-1,2 dihydroisoquinolin-5-yl)-5 (trifluoromethyl)-N-[2 (trifluoromethyl)pyridin-4 yl]-1H-pyrazole-4 carboxamide], the “surface expression of CD69 on T cells” value (CD4+ and CD8+ T cells; NHL blood) was “significantly inhibited”, the “surface expression of CD69 on CD4+ and CD8+ T cells” value (CD4+ and CD8+ T cells; normal blood) was “not affected” and the “NFκB nuclear translocation in T cells” value ([1]; CD3/CD28 stimulation, dosage dependent) was “completely blocked”. The pIC50 ([1]; Homo sapiens, CD8 positive, overnight, CD3/CD28 stimulation 6 h, read-out: IC50, NFκB nuclear translocation in T cells) was roughly 5.02, the “NF-κB nuclear translocation in activated B cells” value [2] was “inhibited” and the “NF-κB nuclear translocation in B cells” value [3] was “inhibited”. For the same compound, the “stimulation induced upregulation of CXCL10” value [4] was “repressed”, the “stimulation induced upregulation of CXCL10” value [5] was “repressed” and the “stimulation induced upregulation of IL2” value [6] was “repressed”. The APOE expression ([7]; purified PBMCs) was “repressed”, the PYCARD expression ([7]; purified PBMCs) was “repressed” and the NF-κB2 expression ([7]; purified T-cells) was “repressed”. The TNFSF10 expression ([7]; purified T-cells) was “repressed”, the genes significantly upregulated [8] was “no genes were significantly upregulated” and the “gene expression at the specified cutoff levels” value ([8]; genes ICOS, POU2F2, CCR4, CTLA4) was “downregulated”. For the same compound, the “growth of DLBCL cell lines” value [9] was “inhibit growth”, the “efficacy in xenograft models” value [10] was “shown efficacy” and the “binding inhibition of proteases, caspases, protein kinases, and G-protein-coupled receptors” value [11] was “did not show significant binding inhibition”. For the same compound, the oral bioavailability (Oral bioavailability) was “orally bioavailable”.

In the case of `COCCOc1nc(-c2ccc(Cl)c(Cl)c2)n(-c2ccc(NC(=O)CCl)cc2)n1` [MI-2], the “nuclear translocation of NF-κB proteins” value [12] is listed as “suppress” and the “expression of six known NF-κB target genes” value [13] is listed as “significantly reduce”.
